Patent US9839642B2, “Beta-tetrazolyl-propionic acids as metallo-beta-lactamase inhibitors” (priority 2014, dated 2017)
Like-named read-outs stand apart in the source and are kept apart here.

Tests used:
IMP-1 = IMP-1 (Serratia marcescens, UniProt P52699); experiment: Enzyme activity: determination of IC50, fluorescence assay with CCF2-FA substrate; assay type: biochemical; settings: CCF2-FA 1.25 μM, 2 hours at 25° C., read-out: IMP1 IC50
How it was run: (§1)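 100 mM KH2PO4 pH 7 + 0.005% Tween-20 + 10 μM ZnSO4; CCF2-FA 1.25 μM; NDM-1 1 pM, IMP-1 2 pM, VIM-1 30 pM; cpd 20–0.00063 μM final, DMSO 1:50. 2 h, 25° C. Ex 405/em 460 nm; IC50, 4-param fit.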

NDM-1 = NDM-1 (Klebsiella pneumoniae, UniProt C7C422); experiment: as above; assay type: biochemical; settings: CCF2-FA 1.25 μM, 2 hours at 25° C., read-out: NDM1 IC50
Sequence of NDM-1 (C7C422 29-270, looked up, species assumed): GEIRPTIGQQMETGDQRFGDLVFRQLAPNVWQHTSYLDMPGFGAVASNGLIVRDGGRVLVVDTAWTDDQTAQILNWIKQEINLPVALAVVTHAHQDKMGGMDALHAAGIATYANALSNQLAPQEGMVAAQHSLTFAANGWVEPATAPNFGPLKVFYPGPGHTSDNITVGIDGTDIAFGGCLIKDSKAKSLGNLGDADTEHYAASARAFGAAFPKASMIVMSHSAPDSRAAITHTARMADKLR
How it was run: as §1

VIM-1 = VIM-1 (Pseudomonas aeruginosa, UniProt A0A0F7KYQ8); experiment: as above; assay type: biochemical; settings: CCF2-FA 1.25 μM, 2 hours at 25° C., read-out: VIM1 IC50
How it was run: as §1

[1] = test system: Escherichia coli expressing NDM-1 (CLB30016); experiment: Antibiotic potentiation activity: synergistic concentration (MITC95) with imipenem, growth by OD600; assay type: cell-based
How it was run: (§2)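 MITC95 = lowest inhibitor concentration giving 95% growth inhibition, read by absorbance after 22–24 h at 35° C. Compound range 200 μM to 0.195 μM, imipenem fixed at 1 or 4 μg/ml, bacteria in 1.1×CAMHB from saline suspension diluted 1:100.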

[2] = test system: Klebsiella pneumoniae expressing VIM-1 (IHMA599644); experiment: as above; assay type: cell-based
How it was run: as §2

[3] = test system: Serratia marcescens expressing IMP-1 (CL5741); experiment: as above; assay type: cell-based
How it was run: as §2

[4] = 95% inhibition of bacterial growth, strain CLB30016
[5] = 95% inhibition of bacterial growth, strain IHMA599644
[6] = 95% inhibition of bacterial growth, strain CL5741
[7] = E. coli CLB30016 (NDM-1), 95% inhibition of growth
[8] = K. pneumoniae IHMA599644 (VIM-1), 95% inhibition of growth
[9] = S. marcescens CL5741 (IMP-1), 95% inhibition of growth

Sequence of IMP-1 (P52699 19-246, looked up, species assumed): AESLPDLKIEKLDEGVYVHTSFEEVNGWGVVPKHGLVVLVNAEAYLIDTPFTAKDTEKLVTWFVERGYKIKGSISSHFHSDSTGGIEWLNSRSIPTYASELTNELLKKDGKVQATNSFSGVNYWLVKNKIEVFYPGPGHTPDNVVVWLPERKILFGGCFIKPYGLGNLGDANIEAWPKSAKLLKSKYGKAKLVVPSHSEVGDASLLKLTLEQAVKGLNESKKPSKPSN

SMILES | IC50 (IMP-1; enzyme 2 pM) [nM] | IC50 (NDM-1; enzyme 1 pM) [nM] | IC50 (VIM-1; enzyme 30 pM) [nM] | NDM1 EC30016 MITC95 [1, 4] [µM] | VIM1 KP599644 MITC95 [2, 5] [µM] | IMP1 SM5741 MITC95 [3, 6] [µM] | IC50 (IMP-1; IMP-1 enzyme 2 pM) [nM] | IC50 (NDM-1; NDM-1 enzyme 1 pM) [nM] | IC50 (VIM-1; VIM-1 enzyme 30 pM) [nM] | NDM1 EC30016 MITC95 [1, 7] [µM] | VIM1 KP599644 MITC95 [2, 8] [µM] | IMP1 SM5741 MITC95 [3, 9] [µM]
CCC[C@H](C(=O)O)[C@H](Cc1cccc(C#N)c1)c1nn[nH]n1 [Example 41, (2S)-2-[(1S)-2-(3-cyanophenyl)-1-(1H-tetrazol-5-yl)ethyl]pentanoic acid] | 590 | 60 | 0.87 | 18.8 | 18.8 | 37.5 | – | – | – | – | – | –
CCC[C@H](C(=O)O)[C@H](Cc1ccc(OCCN)nc1)c1nnn[nH]1 [Example 130, (S)-2-((S)-2-(6-(2-aminoethoxy)pyridin-3-yl)-1-(1H-tetrazol-5-yl)ethyl)pentanoic acid] | 8400 | 900 | 8.3 | 4.7 | 18.8 | 50 | – | – | – | – | – | –
CC(C)[C@H](C(=O)O)[C@H](Cc1ccc(C2CCNC2)nc1)c1nnn[nH]1 (stereo partly drawn) [Example 105, (2S,3S)-2-isopropyl-4-(6-(pyrrolidin-3-yl)pyridin-3-yl)-3-(1H-tetrazol-5-yl)butanoic acid] | 14000 | 170 | 20 | 3.1 | 12.5 | 50 | – | – | – | – | – | –
CCC[C@H](C(=O)O)[C@H](Cc1ccccc1C1=CCC(N)CC1)c1nn[nH]n1 (stereo partly drawn) [Example 449, 2′-((2S,3S)-3-carboxy-2-(2H-tetrazol-5-yl)hexyl)-2,3,4,5-tetrahydro-[1,1′-biphenyl]-4-aminium 2,2,2-trifluoroacetate] | – | – | – | – | – | – | 8860 | 72.9 | 87.2 | 9.375 | 25 | 200
CC(C)C[C@H](C(=O)O)[C@H](Cc1ccc(COC2CCNCC2)c(F)c1)c1nn[nH]n1.O=C(O)C(F)(F)F [Example 447, 4-((4-((2S,3S)-3-carboxy-5-methyl-2-(2H-tetrazol-5-yl)hexyl)-2-fluorobenzyl)oxy)piperidin-1-ium 2,2,2-trifluoroacetate] | – | – | – | – | – | – | 163 | 104 | 6.35 | 9.375 | 25 | 6.25
CCC[C@H](C(=O)O)[C@H](Cc1ccc(NC)cn1)c1nnn[nH]1 [Example 151] | 7900 | 300 | 120 | 0.39 | 12.5 | 100 | – | – | – | – | – | –
CC(C)C[C@H](C(=O)O)[C@H](Cc1ccc(Oc2cccc3c2CCNC3)nc1)c1nn[nH]n1 [Example 388, (2S)-4-methyl-2-[(1S)-2-[6-(1,2,3,4-tetrahydroisoquinolin-5-yloxy)pyridin-3-yl]-1-(2H-tetrazol-5-yl)ethyl]pentanoic acid] | – | – | – | – | – | – | 340 | 130 | 18 | 25 | 38 | 18.8
CCC[C@H](C(=O)O)[C@H](Cc1ccccc1C(N)=O)c1nnn[nH]1 [Example 47, (2S)-2-[(1S)-2-(2-carbamoylphenyl)-1-(1H-tetrazol-5-yl)ethyl]pentanoic acid] | 7200 | 120 | 73 | 9.4 | 37.5 | 200 | – | – | – | – | – | –
CCC[C@H](C(=O)O)[C@H](Cc1cccc(-c2ccc(C3CCNCC3)cc2)c1)c1nn[nH]n1 [Example 350, (2S)-2-[(1S)-2-(4′-piperidin-4-ylbiphenyl-3-yl)-1-(2H-tetrazol-5-yl)ethyl]pentanoic acid] | – | – | – | – | – | – | 380 | 26 | 3 | 25 | 25 | 6.2
CCC[C@H](C(=O)O)[C@H](Cc1ccc(N2CCN(C(C)=O)CC2)cc1)c1nn[nH]n1 [Example 228, (2S)-2-[(1S)-2-[4-(4-acetylpiperazin-1-yl)phenyl]-1-(2H-tetrazol-5-yl)ethyl]pentanoic acid] | 220 | 33 | 15 | 75 | 200 | 16 | – | – | – | – | – | –
CCC[C@H](C(=O)O)[C@H](Cc1ccccn1)c1nn[nH]n1 [Example 154, (S)-2-((S)-2-(pyridin-2-yl)-1-(1H-tetrazol-5-yl)ethyl)pentanoic acid] | 13000 | 430 | 140 | 0.78 | 25 | 100 | – | – | – | – | – | –
CCC[C@H](C(=O)O)[C@H](Cc1ccc(CN2CCNCC2)cc1)c1nnn[nH]1 [Example 55, (S)-2-((S)-2-(4-(piperazin-1-ylmethyl)phenyl)-1-(1H-tetrazol-5-yl)ethyl)pentanoic acid] | 810 | 120 | 19 | 6.2 | 25 | 18.8 | – | – | – | – | – | –
CC(C)C[C@H](C(=O)O)[C@H](Cc1ccc(CN2CCC(N)CC2)c(F)c1)c1nn[nH]n1.O=C(O)C(F)(F)F [Example 444, 1-(4-((2S,3S)-3-carboxy-5-methyl-2-(2H-tetrazol-5-yl)hexyl)-2-fluorobenzyl)piperidin-4-aminium 2,2,2-trifluoroacetate] | – | – | – | – | – | – | 216 | 82.9 | 76.5 | 9.375 | 25 | 12.5
NCc1ccc(-c2ccc(C[C@H](c3nnn[nH]3)[C@@H](C(=O)O)C3CCCC3)cc2)cc1 [Example 75, (2S,3S)-4-(4′-(aminomethyl)-[1,1′-biphenyl]-4-yl)-2-cyclopentyl-3-(1H-tetrazol-5-yl)butanoic acid] | 36 | 25 | 4.3 | 3.1 | 9.4 | 0.78 | – | – | – | – | – | –
CCC[C@H](C(=O)O)[C@H](Cc1cccc(N)n1)c1nnn[nH]1 [Example 117, (2S)-2-[(1S)-2-(6-aminopyridin-2-yl)-1-(1H-tetrazol-5-yl)ethyl]pentanoic acid] | > 20000 | 1300 | 370 | 1.6 | 18.8 | >200 | – | – | – | – | – | –
CCC[C@H](C(=O)O)[C@H](Cc1ccccc1Br)c1nnn[nH]1 [Example 26, (2S)-2-[(1S)-2-(2-bromophenyl)-1-(1H-tetrazol-5-yl)ethyl]pentanoic acid] | 570 | 9.9 | 2.4 | 3.1 | 18.8 | 12.5 | – | – | – | – | – | –
CC(C)C[C@H](C(=O)O)[C@H](Cc1ccc(NCCO)nc1)c1nnn[nH]1 [Example 134, (S)-2-((S)-2-(6-((2-hydroxyethyl)amino)pyridin-3-yl)-1-(1H-tetrazol-5-yl)ethyl)-4-methylpentanoic acid] | 230 | 88 | 6.6 | 0.78 | 18.8 | 4.7 | – | – | – | – | – | –
